# Experimental data reported in patent US9980943B2, “Methods of treating muscular dystrophy” (BOARD OF REGENTS OF THE NEVADA SYSTEM OF HIGHER EDUCATION, …, priority 2013, dated 2018).
# What was measured:
# Format in all cases: cell-based, mouse
# [1] = test system: α7 integrin (LacZ reporter in α7+/LacZ myotubes); experiment: Myotube α7 integrin FDG assay (Burkin assay in myotubes, 96-well); conditions: for Burkin Assay in Myotubes, value relative to DMSO: SU9516 analogs, 96-well, N=3-6
# [2] = test system: α7 integrin (LacZ reporter in α7βgal+/− myoblasts); experiment: Myoblast α7+/LacZ integrin FDG assay (Burkin assay in myoblasts, 96-well); conditions: 96-well; for Burkin Assay in Myoblasts, signal relative to DMSO: α7+/LacZ myoblasts; for Burkin Assay in Myoblasts, value relative to DMSO: SU9516 analogs, N=3-6
# [3] = test system: β-galactosidase in CMV-LacZ C2C12 myotubes; experiment: CMV-LacZ secondary screen in C2C12 myotubes (β-Gal stabilizing assay); conditions: for CMV-LACZ in Myotubes, signal relative to DMSO: C2C12 CMV-LacZ myotubes, fold relative to DMSO; for CMV-LACZ in Myotubes, value relative to DMSO: SU9516 analogs, C2C12 CMV-LacZ, N=2
# Procedure, shortened: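 β-gal stabilization was measured in C2C12 myoblasts or myotubes stably transfected with a CMV-driven LacZ construct, using the FDG β-gal assay. Compounds were tested in dose-response at 0.5, 1, 5, 10, 20 and 40 μM, with two replicates per point.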
# [4] = test system: β-galactosidase in CMV-LacZ C2C12 myoblasts; experiment: CMV-LacZ secondary screen in C2C12 myoblasts (β-Gal stabilizing assay); conditions: for CMV-LACZ in Myoblasts (β-galactosidase activity relative to DMSO): CMV-LacZ C2C12 myoblasts; for CMV-LACZ in Myoblasts, value relative to DMSO: SU9516 analogs, C2C12 CMV-LacZ, N=2
# Procedure, shortened: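 CMV-LacZ C2C12 line (clonal, FDG-screened); myoblasts/myotubes dosed 0.5–40 μM (0.5, 1, 5, 10, 20, 40 μM); n=2 per point; β-gal stabilization read-out.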
smiles,measurement,setting,value
O=C(CSc1nnc(COc2ccc(Br)cc2)o1)NC1CCCCC1 [MLS001215357-01],"Burkin Assay in Myotubes, α7 integrin LacZ reporter signal relative to DMSO",[1]; 0.5 uM,0.9366
same,"Burkin Assay in Myotubes, α7 integrin LacZ reporter signal relative to DMSO",[1]; 1 uM,0.8137
same,"Burkin Assay in Myotubes, α7 integrin LacZ reporter signal relative to DMSO",[1]; 5 uM,0.9057
same,"Burkin Assay in Myotubes, α7 integrin LacZ reporter signal relative to DMSO",[1]; 10 uM,0.884
same,"Burkin Assay in Myotubes, α7 integrin LacZ reporter signal relative to DMSO",[1]; 20 uM,0.756
same,"Burkin Assay in Myotubes, α7 integrin LacZ reporter signal relative to DMSO",[1]; 40 uM,0.6929
same,"Burkin Assay in Myoblasts, signal relative to DMSO",[2]; 0.5 uM,1.037
same,"Burkin Assay in Myoblasts, signal relative to DMSO",[2]; 1 uM,0.93
same,"Burkin Assay in Myoblasts, signal relative to DMSO",[2]; 5 uM,0.8837
same,"Burkin Assay in Myoblasts, signal relative to DMSO",[2]; 10 uM,1.489
same,"Burkin Assay in Myoblasts, signal relative to DMSO",[2]; 20 uM,0.9203
same,"Burkin Assay in Myoblasts, signal relative to DMSO",[2]; 40 uM,0.5327
same,"CMV-LACZ in Myotubes, signal relative to DMSO",[3]; 0.5 uM,1.1547
same,"CMV-LACZ in Myotubes, signal relative to DMSO",[3]; 1 uM,1.1400
same,"CMV-LACZ in Myotubes, signal relative to DMSO",[3]; 5 uM,1.1407
same,"CMV-LACZ in Myotubes, signal relative to DMSO",[3]; 10 uM,1.1192
same,"CMV-LACZ in Myotubes, signal relative to DMSO",[3]; 20 uM,1.3622
same,"CMV-LACZ in Myotubes, signal relative to DMSO",[3]; 40 uM,1.0667
same,CMV-LACZ in Myoblasts (β-galactosidase activity relative to DMSO),[4]; 0.5 uM,1.1560
same,CMV-LACZ in Myoblasts (β-galactosidase activity relative to DMSO),[4]; 1 uM,1.2686
same,CMV-LACZ in Myoblasts (β-galactosidase activity relative to DMSO),[4]; 5 uM,0.8575
same,CMV-LACZ in Myoblasts (β-galactosidase activity relative to DMSO),[4]; 10 uM,1.0378
same,CMV-LACZ in Myoblasts (β-galactosidase activity relative to DMSO),[4]; 20 uM,1.2467
same,CMV-LACZ in Myoblasts (β-galactosidase activity relative to DMSO),[4]; 40 uM,0.4719
CC1CCN(C(CNS(=O)(=O)c2ccccc2)c2ccccc2)CC1 (stereo not drawn) [MLS002171615-01],"Burkin Assay in Myotubes, α7 integrin LacZ reporter signal relative to DMSO",[1]; 0.5 uM,1.107
same,"Burkin Assay in Myotubes, α7 integrin LacZ reporter signal relative to DMSO",[1]; 1 uM,1.17
same,"Burkin Assay in Myotubes, α7 integrin LacZ reporter signal relative to DMSO",[1]; 5 uM,0.9709
same,"Burkin Assay in Myotubes, α7 integrin LacZ reporter signal relative to DMSO",[1]; 10 uM,0.9947
same,"Burkin Assay in Myotubes, α7 integrin LacZ reporter signal relative to DMSO",[1]; 20 uM,0.8432
same,"Burkin Assay in Myotubes, α7 integrin LacZ reporter signal relative to DMSO",[1]; 40 uM,0.8303
same,"Burkin Assay in Myoblasts, signal relative to DMSO",[2]; 0.5 uM,1.052
same,"Burkin Assay in Myoblasts, signal relative to DMSO",[2]; 1 uM,0.9407
same,"Burkin Assay in Myoblasts, signal relative to DMSO",[2]; 5 uM,0.9747
same,"Burkin Assay in Myoblasts, signal relative to DMSO",[2]; 10 uM,0.8859
same,"Burkin Assay in Myoblasts, signal relative to DMSO",[2]; 20 uM,0.709
same,"Burkin Assay in Myoblasts, signal relative to DMSO",[2]; 40 uM,0.6178
same,"CMV-LACZ in Myotubes, signal relative to DMSO",[3]; 0.5 uM,0.9863
same,"CMV-LACZ in Myotubes, signal relative to DMSO",[3]; 1 uM,0.7874
same,"CMV-LACZ in Myotubes, signal relative to DMSO",[3]; 5 uM,0.9989
same,"CMV-LACZ in Myotubes, signal relative to DMSO",[3]; 10 uM,0.9582
same,"CMV-LACZ in Myotubes, signal relative to DMSO",[3]; 20 uM,1.0111
same,"CMV-LACZ in Myotubes, signal relative to DMSO",[3]; 40 uM,1.0711
same,CMV-LACZ in Myoblasts (β-galactosidase activity relative to DMSO),[4]; 0.5 uM,1.0498
same,CMV-LACZ in Myoblasts (β-galactosidase activity relative to DMSO),[4]; 1 uM,1.3505
same,CMV-LACZ in Myoblasts (β-galactosidase activity relative to DMSO),[4]; 5 uM,0.9273
same,CMV-LACZ in Myoblasts (β-galactosidase activity relative to DMSO),[4]; 10 uM,0.9905
same,CMV-LACZ in Myoblasts (β-galactosidase activity relative to DMSO),[4]; 20 uM,1.2159
same,CMV-LACZ in Myoblasts (β-galactosidase activity relative to DMSO),[4]; 40 uM,0.6726
Cc1ncc(/C=C2\C(=O)Nc3ccccc32)[nH]1 [MLS000834757-01],"Burkin Assay in Myotubes, value relative to DMSO",[1]; 0.5 uM,1.019
same,"Burkin Assay in Myotubes, value relative to DMSO",[1]; 1 uM,0.943
same,"Burkin Assay in Myotubes, value relative to DMSO",[1]; 5 uM,1.03
same,"Burkin Assay in Myotubes, value relative to DMSO",[1]; 10 uM,0.9537
same,"Burkin Assay in Myotubes, value relative to DMSO",[1]; 20 uM,0.9989
same,"Burkin Assay in Myotubes, value relative to DMSO",[1]; 40 uM,0.9464
same,"Burkin Assay in Myoblasts, value relative to DMSO",[2]; 0.5 uM,1.0102
same,"Burkin Assay in Myoblasts, value relative to DMSO",[2]; 1 uM,1.003
same,"Burkin Assay in Myoblasts, value relative to DMSO",[2]; 5 uM,1.125
same,"Burkin Assay in Myoblasts, value relative to DMSO",[2]; 10 uM,0.9651
same,"Burkin Assay in Myoblasts, value relative to DMSO",[2]; 20 uM,1.117
same,"Burkin Assay in Myoblasts, value relative to DMSO",[2]; 40 uM,1.021
same,"CMV-LACZ in Myotubes, value relative to DMSO",[3]; 0.5 uM,1.0238
same,"CMV-LACZ in Myotubes, value relative to DMSO",[3]; 1 uM,0.8695
same,"CMV-LACZ in Myotubes, value relative to DMSO",[3]; 5 uM,1.0546
same,"CMV-LACZ in Myotubes, value relative to DMSO",[3]; 10 uM,1.1047
same,"CMV-LACZ in Myotubes, value relative to DMSO",[3]; 20 uM,1.0789
same,"CMV-LACZ in Myotubes, value relative to DMSO",[3]; 40 uM,1.3600
same,"CMV-LACZ in Myoblasts, value relative to DMSO",[4]; 0.5 uM,1.0367
same,"CMV-LACZ in Myoblasts, value relative to DMSO",[4]; 1 uM,0.9300
same,"CMV-LACZ in Myoblasts, value relative to DMSO",[4]; 5 uM,0.9101
same,"CMV-LACZ in Myoblasts, value relative to DMSO",[4]; 10 uM,1.0942
same,"CMV-LACZ in Myoblasts, value relative to DMSO",[4]; 20 uM,0.8115
same,"CMV-LACZ in Myoblasts, value relative to DMSO",[4]; 40 uM,1.1026
